Test: Biological Methods: HIV cell culture assay-MT-2 cells, 293T cells and the proviral DNA clone of NL4-3 virus were obtained from the NIH AIDS Research and Reference Reagent Program. MT-2 cells were propagated in RPMI 1640 media supplemented with 10% heat inactivated fetal bovine serum (FBS), 100 jag/ml penicillin G and up to 100 units/mL streptomycin. The 293T cells were propagated in DMEM media supplemented with 10% heat inactivated FBS, 100 μg/mL penicillin G and 100 μg/mL streptomycin. A recombinant NL4-3 proviral clone, in which a section of the nef gene was replaced with the Renilla luciferase gene, was used to make the reference virus used in these studies. The recombinant virus was prepared through transfection of the recombinant NL4-3 proviral clone into 293T cells using Transit-293 Transfection Reagent from Mirus Bio LLC (Madison, Wis.). Supernatant was harvested after 2-3 days and the amount of virus present was titered in MT-2 cells using luciferase enzyme activity as a marker by measuring luciferase enzyme activity. Luciferase was quantitated using the EnduRen Live Cell Substrate from Promega (Madison, Wis.). Antiviral activities of compounds toward the recombinant virus were quantified by measuring luciferase activity in MT-2 cells infected for 4-5 days with the recombinant virus in the presence of serial dilutions of the compound.
Format: cell-based

Row | Structure (SMILES) | EC50 [nM]
1 | C[C@H]1CCc2ccccc2N1S(=O)(=O)NC(=O)N[C@@H](Cc1cc(F)cc(F)c1)C(=O)N(C)c1ccc2scnc2c1 | 90
2 | C[C@@H]1Cc2cccnc2N1S(=O)(=O)NC(=O)N[C@@H](Cc1cc(F)cc(F)c1)C(=O)N(C)c1ccc2scnc2c1 | 20
3 | C[C@H]1Cc2cccnc2N1S(=O)(=O)NC(=O)N[C@@H](Cc1cc(F)cc(F)c1)C(=O)N(C)c1ccc2scnc2c1 | 50
4 | C[C@@H]1CCc2ccccc2N1S(=O)(=O)NC(=O)N[C@@H](Cc1cc(F)cc(F)c1)C(=O)N(C)c1ccc2scnc2c1 | 100
5 | CC1CN(S(=O)(=O)NC(=O)N[C@@H](Cc2cc(F)cc(F)c2)C(=O)N(C)c2ccc3scnc3c2)c2ncccc21 (single isomer, unassigned) | < 10

From ChEMBL document CHEMBL5726630, “Inhibitors of human immunodeficiency virus replication” (2019)
